# Key:
# [1] = tested on: neonatal epidermal melanocytes; assay: Proliferation of neonatal epidermal melanocytes; format: cell-based; settings: 48 hours
# [2] = tested on: SKMEL-188 human melanoma cells; assay: Proliferation (DNA synthesis) of SKMEL-188; format: cell-based; settings: SKMEL-188, 72 h
# Experimental: To measure DNA synthesis, keratinocytes, melanoma or prostate cancer cells were plated in 96-well plates. After overnight incubation tested compounds were added to the medium to achieve final concentrations 10^−7-10^−10 [M]. 100 μl of medium per well containing vitamin D3 compound was added to the cells. After 36 hours of incubation [3H]-thymidine (specific activity 88.0 Ci/mmol; Amersham Biosciences, Picataway, N.Y., USA) was added at 1 μCi/mL medium. After 12 hours, media were discarded, cells detached with trypsin and harvested on a glass fiber filter (Packard, Meriden, Calif., USA). 3H-radioactivity was measured with a beta counter (Direct Beta-Counter Matrix 9600; Packard).
# HaCaT keratinocytes were an incubated for 48 h (FIG. 48A) or 72 h (FIG. 48B) in the presence of graded concentrations of 20(OH)D2 and/or 1,25(OH)2D3. […] Data are shown as mean±SD (n 3); *, p<0.05; **, p<0.01.
# [3] = tested on: HL-60 human promyelocytic leukemia cells; assay: Monocytic differentiation (NBT), HL-60; format: cell-based; settings: HL-60, 0.1 μM
# Experimental: HL-60 human promyelocytic and U937 promonocytic leukemia cells were treated with the drugs at 0.1 μM or vehicle (negative control or 12-O-tetradecanoylphorbol-13-acetate (TPA) (positive control). Media were changed every 72 h and test substances added fresh every day. Differentiation toward monocytes-like morphology and NBT-reduction has been assessed after 5 and 7 days. Cells (2×106) were washed with PBS four times and resuspended in 200 μL of NBT solution (4 mg/mL) in water. After the addition of 200 ul of TPA solution (2 ug/ml) in PBS cells were incubated at 37° C. for 60 min in 24-well plates. Cell differentiation was assessed by intracellular blue formazan deposits. The NBT positive and negative cells were scored under light microscopy examination (40×) with a minimum of 200 cells scored.
# For spectrophotometric analysis the cells were washed twice with buffer containing cold bovine serum albumin solution (17 mg/mL BSA, 137 mmol/L, NaCl, 5 mmol/L, KCl, 0.8 mmol/L, MgSO4, […], HEPES, pH7.4) to remove unreacted NBT, and the insoluble formazan deposits in the resulting pellet were solubilized in 1 mL of a mixture containing 90% DMSO, 0.1% SDS and 0.01 mmol/L NaOH by vigorous vortexing. The samples were centrifuged 5 min at 1500 g to remove the cellular debris, and then the absorbance of supernatants was measured at 715 nm. Data are expressed as change in A715/106 cells.
# [4] = tested on: mouse erytholeukemia cells (Mel); assay: Viable cell count, MEL cells; format: cell-based; settings: 10^-7 M, 7 days
# Experimental: K562 human chronic myeloid leukemia (erythroleukemia) and MEL mouse erytholeukemia cells were cultured in RPMI 1640 containing 10% FBS and treated with the drugs at concentrations 0.1 μM. A 0.1% ethanol (EtOH) or 2% DMSO were used as negative or positive control, respectively to estimate the vehicle effect and the ability of the cells to differentiate. Media were exchanged every 72 h and drugs added every day. Growth of cultures was estimated by counting number of viable cells (trypan blue negative cells) as described previously.
# MD-MBA-231 = assay: Flow cytometry cell cycle and subG1, MD-MBA-231; format: cell-based, human; settings: MD-MBA-231, 24 h
# Experimental: MD-MBA-231, MG-63, PC-3, and WM164 cells were seeded into Petri dishes and then incubated for 24 h with 20-hydroxycholecalciferol in DMEM medium containing 5% FBS. Then cells were fixed, DNA stained and samples read with flow cytometer as described (7). Data was analyzed with Cell Quest (BD Biosciences). Cell cycle phases were assessed in viable cell populations and subG1 contents were calculated within whole cell population.
# [5] = tested on: human osteosarcoma cell line MG-63; assay: Proliferation of MG-63 osteosarcoma cells; format: cell-based
# Experimental: Cells were seeded in 96-well plate and incubated with 20-hydroxycholecalciferol in DMEM medium containing 5% FBS for 48 h (FIG. 25A) or 72 h (FIG. 25C) or for 24 h after a 12 h synchronization in serum free medium (FIG. 25D). […] was added for a final 18 h (FIGS. 25A, 25D) or 12 h (FIG. 25C) of incubation or cells were assessed with sulforhodamine assay (FIG. 25C). Data is shown as mean±SEM (n=5; FIG. 24C) or mean±SEM (n=6; FIGS. 24A, 24C, 24D) and was analyzed using GraphPrism 4.0.
# CYP24 = assay: Real-time RT PCR CYP24 mRNA, normal epidermal keratinocytes; format: cell-based, human
# Experimental: RNA was extracted as above. Reverse transcription was performed with Transcriptor First Strand cDNA Synthesis Kit (Roche, Nutley, N.J.). The primers (right: 5′-GCA GCT CGA CTG GAG TGA C-3′ (SEQ ID NO: 1) and left: 5′-CATCATGGCCATCAAAACAAT-3′(SEQ ID NO: 2)) and probe (cat. no. 04689135001) were designed with Universal Probe Library (Roche, Nutley, N.J.). Real-time PCR was performed using TaqMan PCR Master Mix at 50° C. for 2 min, 95° C. for 10 min and then 50 cycles (95° C. for 15 sec, 60° C. for 1 min). The data was collected on a Roche Light Cycler 480. The amounts of CYP24 were normalized using cyclophilin D as a housekeeping gene with comparative CT method.
smiles,measurement,setting,value
"C=C1/C(=C\C=C2/CCC[C@]3(C)[C@@H]([C@H](C)CCCC(C)(C)O)CC[C@@H]23)C[C@@H](O)C[C@@H]1O [1α,25-dihydroxycholecalciferol, (5Z,7E)-9,10-secocholesta-5,7,10(19)-triene-1α,3β,25-triol, reference compound]",proliferation,[1],Dose dependent inhibition of the proliferation
same,proliferation,[2],Dose dependent inhibition of the proliferation
"C=C1CC[C@H](O)C/C1=C/C=C1\CCC[C@]2(C)[C@@H](C(C)=O)CC[C@@H]12 [pD3, (5Z,7E)-3β-hydroxy-9,10-secopregna-5,7,10(19)-trien-20-one]",monocytic differentiation (NBT staining),[3],induce monocytic differention
same,proliferation of mouse erytholeukemia cells (Mel),[4],inhibit proliferation
"C=C1CC[C@H](O)C/C1=C/C=C1\CCC[C@@]2(C)[C@H]1CC[C@@H]2[C@@](C)(O)CCCC(C)C [20(OH)D3, (5Z,7E)-9,10-secocholesta-5,7,10(19)-triene-3β,20-diol]",G0/G1 of viable cells,MD-MBA-231,47%
same,G2/M of viable cells,MD-MBA-231,10
same,S of viable cells,MD-MBA-231,43%
same,Viable Cells,MD-MBA-231,8
same,subG1,MD-MBA-231; whole cell population,92
same,EC50,[5],570 nM
same,increase of CYP24 mRNA levels,"CYP24; 10 nM, 24 h",1.3 fold
same,stimulation of CYP24 mRNA,"CYP24; 10^−6, 24 h",~247 fold

# Source: patent publication US20120258938A1, “Enzymatic Production or Chemical Synthesis and Uses for 5,7-Dienes and UVB Conversion Products Thereof” (priority 2008, published 2012)
